We go through eight molecules from patent US5610297A, “Peptides ketoamides” (Georgia Tech Research Corp., priority 1995, dated 1997).

Series [1] relates to Calpain-mediated breakdown of spectrin in platelets. The series is described as follows: Platelet membrane permeability assay. It counts as cell-based, rat. The arrangement: key: +++ = excellent activity; ++ = good activity; + = moderate activity; quantitative measurements not yet complete. To be noted: class symbols; quantitative measurements not yet complete. As to the method:
(§1) Platelet membrane permeability assay. Calpain-mediated breakdown of spectrin was measured by quantitative densitometry of the calpain-specific 150/155 kDa spectrin fragment doublet [see Siman et al., Proc. Natl. Acad. Sci. USA 81, 3572-3576 (1984)]. Platelets were isolated by a modification of the method of Ferrell and Martin [J. Biol. Chem. 264, 20723-20729 (1989)]. Blood (15-20 ml) was drawn from male Sprague-Dawley rats into 1/10th volume of 100 mM EDTA-citrate, and centrifuged 10 minutes at 2000 rpm in a clinical centrifuge at room temperature. […] Platelets were washed once in 15 ml buffer 1, then resuspended to 10^7 cells/ml in buffer 2 (136 mM NaCl, 2.7 mM KCl, 0.42 mM NaH2 PO4, 12 mM NaHCO3, 2mM MgCl, 1 mg/ml BSA (Sigma), 5.6 mM glucose, 20 mM HEPES (Sigma) pH 7.4) and allowed to "rest" for a minimum of 10 minutes at room temperature before use.
(§2) Inhibitors were added from stock solutions made fresh in DMSO. 100 μl platelets, suspended to 10^7 cells/ml in buffer 2, were incubated with 1 μl of an inhibitor solution for 5 minutes at room temperature prior to the addition of 2 mM Ca^2+ and 1 uM A23 187. After 10 minutes total exposure to inhibitor (5 minutes exposure to ionophore) at room temperature, platelets were reisolated at 14,000 rpm for 10 sec in a Beckman microfuge, dissolved in SDS-PAGE sample buffer, and heated to 90° C. for 3 minutes.
(§3) Samples were subjected to SDS-PAGE in 4-12% gradient mini gels (Novex) and transferred to nitrocellulose (Schleicher and Schuell 0.45 um) by electroblotting. Filters were blocked for 10 minutes in 0.25% gelatin, 1% BSA, 0.25% triton X100, 0.9% NaCl, 10 mM Tris-Cl pH 7.5, incubated overnight in the same solution containing antibody to rat spectrin, washed 3×10 minutes with 10 mM Tris-Cl pH 7.5, 0.5% triton X100, incubated 4 hours in wash buffer plus alkaline phosphatase conjugated goat anti-rabbit antibody (Biorad), and washed as above. Blots were developed using the Biorad AP conjugate substrate kit. Quantitative densitometry was used to obtain values for the intact spectrin bands and the 150/155 kDa breakdown product doublet.

A short description of series [2]: Half-life in plasma. In kind it is in vitro ADME. The conditions noted are these: unit inferred, unit assumed.
Series [3] can be described thus: Half-life in liver. It counts as in vitro ADME. The conditions noted are these: unit inferred, unit assumed.
The target in series [4] is Calpain II from rabbit muscle. Kind of series: Inhibition of calpain II (Suc-Leu-Tyr-AMC hydrolysis). In kind it is biochemical. As to the method:
(§4) Materials and Methods. HEPES, heparin, and A23187 were obtained from Calbiochem. Suc-Leu-Tyr-AMC and chromogenic substrates were obtained from Sigma. Calpain I was purified from human erythrocytes according to the method of Kitahara (Kitahara et al., J. Biochem. 95, 1759-1766) omitting the Blue-Sepharose step. Calpain II from rabbit muscle and cathepsin B were purchased from Sigma. Papain was purchased from Calbiochem.
(§5) Assay of Inhibitory Potency. Peptide α-ketoamides were assayed as reversible enzyme inhibitors. Various concentrations of inhibitors in Me2 SO were added to the assay mixture which contained buffer and substrate. The reaction was started by the addition of the enzyme and the hydrolysis rates were followed spectrophotometrically or fluorimetrically.
(§6) Calpain I from human erythrocytes and calpain II from rabbit were assayed using Suc-Leu-Tyr-AMC [Sasaki et al., J. Biol. Chem. 259, 12489-12494 (1984); incorporated herein by reference], and the AMC (7-amino-4-methylcoumarin) release was followed fluorimetrically (excitation at 380 nm, and emmision at 460 nm). Calpains were assayed in 25 mM Tris pH=8.0, 10 mM CaCl2. Fluorescence was followed using a Gilson FL-1A fluorometer or a Perkin-Elmer 203 Fluorescence spectrometer. Cathepsin B was assayed in 20 mM sodium acetate pH=5.2, 0.5 mM dithiothreitol using Bz-Phe-Val-Arg-p-nitroanilide as substrate. Alternately, cathepsin B was assayed with Z-Arg-Arg-AFC [Barrett and Kirschke, Methods Enzymol. 80, 535-561 (1981); incorporated herein by reference], and the AFC (7-amino-4-trifluoromethylcoumarin) release was followed fluorimetrically (excitation at 400 nm and emmision at 505 nm). Papain was assayed in 100 mM KPO4, 1 mM EDTA, 2.5 mM cysteine pH=6.0 using Bz-Arg-AMC or Bz-Arg-NA [Kanaoka et al., Chem. Plmrm. Bull. 25, 3126-3128 (1977); incorporated herein by reference] as a substrate. The AMC (7-amino-4-methylcoumarin) release was followed fluorimetrically (excitation at 380 nm, and emmision at 460 nm). Enzymatic hydrolysis rates were measured at various substrate and inhibitor concentrations, and KI values were determined by either Lineweaver-Burk plots or Dixon plots.
(§7) A 0.1M Hepes, 0.5M NaCl, pH 7.5 buffer was utilized for human leukocyte elastase (HLE), porcine pancreatic elastase (PPE), chymotrypsin and cathepsin G. A 0.1 Hepes, 0.01M CaCl2, pH 7.5 buffer was utilized for trypsin, plasmin, and coagulation enzymes. A 50 mM Tris-HCl, 2 mM EDTA, 5 mM cysteine, pH 7.5 was used as a buffer for papain. A 88 mM KH2 PO4, 12 mM Na2 HPO4, 1.33 mM EDTA, 2.7 mM cysteine, pH 6.0 solution was used as a buffer for cathepsin B. A 20 mM Hepes, 10 mM CaCl2, 10 mM mercatoethanol, pH 7.2 buffer was utilized for calpain I and calpain II.

For series [5], the system named is Calpain-mediated breakdown of spectrin in platelets. Kind of series: Platelet membrane permeability assay. In kind it is cell-based, rat. Also noted: unit not given here. To be noted: numeric value, unit not given. As to the method: as §1, §2, §3
Series [6] has as its target cathepsin B. Kind of series: Inhibition of cathepsin B. In kind it is biochemical. The conditions noted are these: read-out: KI Cath B. As to the method: as §4, §5, §6, §7
Series [7] deals with porcine pancreatic elastase (PPE) (Sus scrofa, UniProt P00772). Kind of series: Inhibition of PP elastase (Suc-Ala-Ala-Ala-NA hydrolysis). In kind it is biochemical. On the procedure:
as §5, §7
(§8) HLE and PPE were assayed with MeO-Suc-Ala-Ala-Pro-Val-NA and Suc-Ala-Ala-Ala-NA, respectively [Nakajima et al., J. Biol. Chem. 254, 4027-4032 (1979); incorporated herein by reference]. Human leukocyte cathepsin G and chymotrypsin Aα were assayed with Suc-Val-Pro-Phe-NA [Tanaka et al., Biochemistry 24, 2040-2047 (1985); incorporated herein by reference]. The hydrolysis of peptide 4-nitroanilides was measured at 410 nm [ε410 =8800 M^-1 cm^-1; Erlanger et al., Arch. Biochem. Biophys. 95, pp 271-278 (1961); incorporated herein by reference]. Trypsin, thrombin, human plasma kallikrein, porcine pancreatic kallikrein, human factor XIa, and human plasmin were assayed with Z-Arg-SBzl or Z-Gly-Arg-SBu-i [McRae et al., Biochemistry 20, 7196-7206 (1981); incorporated herein by reference]. All peptide thioester hydrolysis rates were measured with assay mixtures containing 4,4'-dithiodipyridine [ε324 =19800 M^-1 cm^-1; Grasetti & Murray, Arch. Biochem. Biophys. 119, 41-49 (1967); incorporated herein by reference].

In series [8] the target is chymotrypsin (Bos taurus, UniProt P00766, DEL14-15/DEL147-148). Kind of series: Inhibition of chymotrypsin (Suc-Val-Pro-Phe-NA hydrolysis). It counts as biochemical, bovine. As to the method:
as §5, §7, §8

Series [9] has as its target cathepsin B (Homo sapiens, UniProt P07858). To be noted: reported by Hu and Abeles; cited from earlier work.
For series [10], the target named is T1, papain (Carica papaya, UniProt P00784).
T1 sequence (P00784 134-345): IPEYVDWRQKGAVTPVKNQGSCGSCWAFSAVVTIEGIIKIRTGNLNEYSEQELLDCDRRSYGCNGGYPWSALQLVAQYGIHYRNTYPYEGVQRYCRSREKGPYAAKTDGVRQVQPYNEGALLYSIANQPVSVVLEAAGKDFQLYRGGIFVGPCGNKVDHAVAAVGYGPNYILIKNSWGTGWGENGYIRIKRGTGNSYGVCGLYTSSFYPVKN
To be noted: reported by Hu and Abeles; cited from earlier work.

porcine pancreatic elastase (PPE), sequence (P00772 27-266): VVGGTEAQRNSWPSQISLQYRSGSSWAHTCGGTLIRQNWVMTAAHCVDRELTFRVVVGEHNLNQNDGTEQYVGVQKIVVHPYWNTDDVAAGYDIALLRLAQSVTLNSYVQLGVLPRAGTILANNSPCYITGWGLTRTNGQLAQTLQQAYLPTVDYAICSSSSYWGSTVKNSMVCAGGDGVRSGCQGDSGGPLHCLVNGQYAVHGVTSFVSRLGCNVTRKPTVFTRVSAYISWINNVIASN

For `CCOC(=O)C(=O)C(CCSC)NC(=O)C(CC(C)C)NC(=O)OCc1ccccc1` (stereo not drawn) [Z--Leu--Met--COOEt], the “platelet (Activity in the Platelet Assay)” value (shortened to “platelet”) in series [1] is given as “+”. This molecule came in with a t 1/2 plasma in series [2] of 8 min.
Take `CCOC(=O)C(=O)[C@H](Cc1ccccc1)NC(=O)[C@H](CC(C)C)NC(=O)[C@H](CC(C)C)NC(=O)OCc1ccccc1` [Z--Leu--Leu--Phe--COOEt]: the “platelet” value in [1] is “++”.
For the molecule `CCCCOC(=O)C(=O)[C@H](Cc1ccccc1)NC(=O)[C@H](CC(C)C)NC(=O)OCc1ccccc1` [Z--Leu--Phe--COOnBu], the “platelet” value in [1] is listed as “+++”. The t 1/2 plasma in [2] came to 7.7 min.
Molecule `CCCNC(=O)C(=O)[C@H](CC)NC(=O)[C@H](CC(C)C)NC(=O)OCc1ccccc1` [Z--Leu--Abu--CONH--nPr, Z-Leu-Abu-CONH-nPr] came in with a t 1/2 liver in series [3] greater than 60 min. In addition, the inhibitory constant (Ki) in series [4] is 0.25 µM; in series [6], 8 µM; in [7] it was 2 µM; in series [8] it was greater than 300 µM. Besides, the “platelet” value in [5] turned out to be 70. In addition, the t 1/2 plasma in series [2] was greater than 60 min.
For `CC(C)CC(NC(=O)OCc1ccccc1)C(=O)NC(Cc1ccccc1)C(=O)C(=O)OCc1ccccc1` (stereo not drawn) [Z--Leu--Phe--COOBz], in series [1], the “platelet” value was “++”. The molecule further yielded a t 1/2 plasma in series [2] of 1.9 min.
For `CC[C@H](NC(=O)[C@H](CC(C)C)NC(=O)OCc1ccccc1)C(=O)C(=O)OCc1ccccc1` [Z--Leu--Abu--COOBzl], in series [1], the “platelet” value is given as “++”.
In the case of `CCNC(=O)C(=O)CNC(=O)[C@H](Cc1ccccc1)NC(=O)OCc1ccccc1` [Z-Phe-Gly-CO--NH-Et], the inhibition constant Ki was 4 µM in series [9] and 1.5 µM in series [10].
In series [3], `CCCCNC(=O)C(=O)C(Cc1ccccc1)NC(=O)C(CC(C)C)NC(=O)OCc1ccccc1` (stereo not drawn) [Z--Leu--Phe--CONH--nBu, Z-Leu-Phe-CONH-nBu] yielded a t 1/2 liver greater than 60 min. Moreover, the Ki in series [4] was 0.028 µM; in [6] it was 3 µM; in series [7] it was greater than 100 µM; in series [8], 8 µM. Further, in series [5], the “platelet” value worked out at 38. Further, in [2], the t 1/2 plasma is greater than 60 min.

A word on the Ki: it is the dissociation constant of the complex between target and ligand, obtained from inhibition or displacement.
